In patent US20230257415A1, “COMPOUNDS FOR TREATING CNS DISORDERS” (SAGE THERAPEUTICS, INC., priority 2019, published 2023) one finds IC50 data, which are given here for 17 compounds.

This test addresses GABAA receptor. In words: [35S]-TBPS binding assay, rat brain cortical membranes, in the presence of GABA. As to conditions: inhibition of 3 nM [35S]-TBPS binding, 5 mM GABA, 90 min, room temp. The protocol:
[35S]-t-Butylbicyclophosphorothionate (TBPS) binding assays using rat brain cortical membranes in the presence of 5 mM GABA has been described (Gee et al, J. Pharmacol. Exp. Ther. 1987, 241, 346-353; Hawkinson et al, Mol. Pharmacol. 1994, 46, 977-985; Lewin, A.H et al., Mol. Pharmacol. 1989, 35, 189-194).
Briefly, cortices are rapidly removed following decapitation of carbon dioxide-anesthetized Sprague-Dawley rats (200-250 g). The cortices are homogenized in 10 volumes of ice-cold 0.32 M sucrose using a glass/teflon homogenizer and centrifuged at 1500 x g for 10 min at 4° C. The resultant supernatants are centrifuged at 10,000 x g for 20 min at 4° C. to obtain the P2 pellets. The P2 pellets are resuspended in 200 mM NaCl/50 mM Na-K phosphate pH 7.4 buffer and centrifuged at 10,000 x g for 10 min at 4° C. This washing procedure is repeated twice and the pellets are resuspended in 10 volumes of buffer. Aliquots ([…]) of the membrane suspensions are incubated with 3 nM [^35S]-TBPS and […] aliquots of test drug dissolved in dimethyl sulfoxide (DMSO) (final 0.5%) in the presence of 5 mM GABA. The incubation is brought to a final volume of 1.0 mL with buffer. […] Following a 90 min incubation at room temp, the assays are terminated by filtration through glass fiber filters (Schleicher and Schuell No. 32) using a cell harvester (Brandel) and rinsed three times with ice-cold buffer. Filter bound radioactivity is measured by liquid scintillation spectrometry. Non-linear curve fitting of the overall data for each drug averaged for each concentration is done using Prism (GraphPad). […] The concentration of test compound producing 50% inhibition (IC50) of specific binding and the maximal extent of inhibition (Imax) are determined for the individual experiments with the same model used for the overall data and then the means ± SEM.s of the individual experiments are calculated.
Various compounds are or can be screened to determine their potential as modulators of [^35S]-TBPS binding in vitro. These assays are or can be performed in accordance with the above.

A word on the IC50: it is the concentration at which inhibition is half-maximal. `C[C@@H]1CC[C@H]([C@@H](C)Cn2cc(C#N)cn2)[C@@]2(C)CC[C@H]3[C@@H](CC[C@@H]4C[C@](C)(O)CC[C@@H]43)[C@H]12` [Example 11, 1-((R)-2-((1R,4R,4aS,4bR,6aR,8R,10aS,10bR,12aR)-8-hydroxy-4,8,12a-trimethyloctadecahydrochrysen-1-yl)propyl)-1H-pyrazole-4-carbonitrile]: the IC50 was < 100 nM.
To `C[C@@]1(O)CC[C@H]2[C@H](CC[C@@H]3[C@@H]2CC[C@]2(C)[C@@H](CNC(=O)c4cccc(C#N)c4)CCC[C@@H]32)C1` [Example 31, 3-cyano-N-(((1S,4aS,4bR,6aR,8R,10aS,10bR,12aS)-8-hydroxy-8,12a-dimethyloctadecahydrochrysen-1-yl)methyl)benzamide] belongs 100 to 1000 nM; to `CCC[C@@]1(O)CC[C@H]2[C@@H](CC[C@@H]3[C@@H]2CC[C@]2(C)[C@@H]([C@@H](C)Cn4nnnc4C)CCC[C@@H]32)C1` [Example 8, (2R,4aS,4bR,6aS,7R,10aS,10bR,12aS)-6a-methyl-7-((R)-1-(5-methyl-1H-tetrazol-1-yl)propan-2-yl)-2-propyloctadecahydrochrysen-2-ol], 100 to 1000 nM; to `CC[C@]12CC[C@@](C)(O)C[C@H]1CC[C@H]1[C@@H]3CCC[C@H](CN(C)C(=O)c4ccccc4)[C@@]3(C)CC[C@@H]12` [Example 37, N-(((1S,4aS,4bS,6aR,8R,10aS,10bS,12aS)-10a-ethyl-8-hydroxy-8,12a-dimethyloctadecahydrochrysen-1-yl)methyl)-N-methylbenzamide], 100 to 1000 nM.
For `C[C@@]1(O)CC[C@H]2[C@H](CC[C@@H]3[C@@H]2CC[C@]2(C)[C@@H](CNC(=O)c4ccccc4)CCC[C@@H]32)C1` [Example 24, N-(((1S,4aS,4bR6aR,8R,10aS,10bR,12aS)-8-hydroxy-8,12a-dimethyloctadecahydrochrysen-1-yl)methyl)benzamide], the IC50 lay within 100 to 1000 nM.
To `C[C@@]1(O)CC[C@H]2[C@H](CC[C@@H]3[C@@H]2CC[C@]2(C)[C@@H](CNC(=O)c4ccccn4)CCC[C@@H]32)C1` [Example 29, N-(((1S,4aS,4bR,6aR,8R,10aS,10bR,12aS)-8-hydroxy-8,12a-dimethyloctadecahydrochrysen-1-yl)methyl)picolinamide] belongs 100 to 1000 nM; to `CCC[C@@]1(O)CC[C@H]2[C@@H](CC[C@@H]3[C@@H]2CC[C@]2(C)[C@@H]([C@@H](C)Cn4nnc(C)n4)CCC[C@@H]32)C1` [Example 5, (2R,4aS,4bR,6aS,7R,10aS,10bR,12aS)-6a-methyl-7-((R)-1-(5-methyl-2H-tetrazol-2-yl)propan-2-yl)-2-propyloctadecahydrochrysen-2-ol], 100 to 1000 nM; to `C[C@H](NC(=O)c1ccc(C#N)cc1)[C@H]1CCC[C@H]2[C@@H]3CC[C@@H]4C[C@](C)(O)CC[C@@H]4C3CC[C@]12C` (stereo partly drawn) [Example 42, 4-cyano-N-((1S)-1-((1S,4aS,4bR,6aR,8R,10aS,12aS)-8-hydroxy-8,12a-dimethyloctadecahydrochrysen-1-yl)ethyl)benzamide], 100 to 1000 nM.
To `C[C@H](Cn1cc(C#N)cn1)[C@H]1CC[C@H]2[C@@H]3CC=C4CC[C@](C)(O)CC[C@]4(C)[C@H]3CC[C@]12C` [Example 18, 1-((S)-2-((1R,3aS,3bS,8S,10aR,10bS,12aS)-8-hydroxy-8,10a,12a-trimethyl-1,2,3,3a,3b,4,6,7,8,9,10,10a,10b,11,12,12a-hexadecahydrocyclohepta[a]cyclopenta[f]naphthalen-1-yl)propyl)-1H-pyrazole-4-carbonitrile] belongs < 100 nM; to `CCOC[C@@]1(O)CC[C@@H]2C3CC[C@]4(C)[C@@H]([C@H](C)NC(=O)c5ccc(F)cc5F)CCC[C@H]4[C@@H]3CC[C@@H]2C1` (stereo partly drawn) [Example 53, N-((1S)-1-((1S,4aS,4bR,6aR,8R,10aS,12aS)-8-(ethoxymethyl)-8-hydroxy-12a-methyloctadecahydrochrysen-1-yl)ethyl)-2,4-difluorobenzamide], 100 to 1000 nM; to `C[C@@H](NC(=O)c1ccc(C#N)cc1)[C@H]1CCC[C@H]2[C@@H]3CC[C@@H]4C[C@](C)(O)CC[C@@H]4C3CC[C@]12C` (stereo partly drawn) [Example 43, 4-cyano-N-((1R)-1-((1S,4aS,4bR,6aR,8R,10aS,12aS)-8-hydroxy-8,12a-dimethyloctadecahydrochrysen-1-yl)ethyl)benzamide], 100 to 1000 nM.
To `C[C@@]1(O)CC[C@H]2[C@H](CC[C@@H]3[C@@H]2CC[C@]2(C)[C@@H](CNS(=O)(=O)c4ccccc4)CCC[C@@H]32)C1` [Example 25, N-(((1S,4aS,4bR,6aR,8R,10aS,10bR,12aS)-8-hydroxy-8,12a-dimethyloctadecahydrochrysen-1-yl)methyl)benzenesulfonamide] belongs < 100 nM.
In the case of `C[C@H](Cn1cc(C#N)cn1)[C@H]1CC[C@H]2[C@@H]3CC[C@H]4CC[C@](C)(O)CC[C@]4(C)[C@H]3CC[C@]12C` [Example 20, 1-((S)-2-((1R,3aS,3bR,5aS,8S,10aS,10bS,12aS)-8-hydroxy-8,10a,12a-trimethyloctadecahydrocyclohepta[a]cyclopenta[f]naphthalen-1-yl)propyl)-1H-pyrazole-4-carbonitrile], the IC50 was < 100 nM.
To `C[C@H](Nc1ccc(C#N)cc1)[C@H]1CCC[C@H]2[C@@H]3CC[C@@H]4C[C@](C)(O)CC[C@@H]4C3CC[C@]12C` (stereo partly drawn) [Example 50, 4-(((1S)-1-((1S,4aS,4bR,6aR,8R,10aS,12aS)-8-hydroxy-8,12a-dimethyloctadecahydrochrysen-1-yl)ethyl)amino)benzonitrile] belongs < 100 nM.
`C[C@@H](Cn1cc(C#N)cn1)[C@H]1CC[C@H]2[C@@H]3CC[C@H]4CC[C@](C)(O)CC[C@]4(C)[C@H]3CC[C@]12C` [Example 19, 1-((R)-2-((1R,3aS,3bR,5aS,8S,10aS,10bS,12aS)-8-hydroxy-8,10a,12a-trimethyloctadecahydrocyclohepta[a]cyclopenta[f]naphthalen-1-yl)propyl)-1H-pyrazole-4-carbonitrile]: the IC50 was < 100 nM.
To `C[C@@H]1CC[C@H]([C@H](C)Cn2cc(C#N)cn2)[C@@]2(C)CC[C@H]3[C@@H](CC[C@@H]4C[C@](C)(O)CC[C@@H]43)[C@H]12` [Example 12, 1-((S)-2-((1R,4R,4aS,4bR,6aR,8R,10aS,10bR,12aR)-8-hydroxy-4,8,12a-trimethyloctadecahydrochrysen-1-yl)propyl)-1H-pyrazole-4-carbonitrile] belongs < 100 nM.
On to `Cn1nccc1C(=O)NC[C@H]1CCC[C@H]2[C@@H]3CC[C@@H]4C[C@](C)(O)CC[C@@H]4[C@H]3CC[C@]12C` [Example 33, N-(((1S,4aS,4bR,6aR,8R,10aS,10bR,12aS)-8-hydroxy-8,12a-dimethyloctadecahydrochrysen-1-yl)methyl)-1-methyl-1H-pyrazole-5-carboxamide], for which the half-inhibitory concentration (IC50) was in the range of 100 to 1000 nM.
